Data: ChEMBL document CHEMBL1201862, “PubChem BioAssay data set” (2004)
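Five compound concentrations were applied to cells in 96-well plates for 48 hours; endpoints were derived by simple linear interpolation of the resulting dose-response curve. GI50 = concentration required for 50% inhibition of growth.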 Calls of active or inactive are those of the source. Rule as the data show it: active = GI50 up to about 1.1 µM and inactive = higher.

Assays:
Experiment in all cases: inhibition of tumour cell growth, NCI panel, 48 h
786-0 = tested on: 786-0
HOP-92 = tested on: HOP-92
MOLT-4 = tested on: MOLT-4
SW-620 = tested on: SW-620
HOP-62 = tested on: HOP-62
HT-29 = tested on: HT-29
SF-295 = tested on: SF-295
KM12 = tested on: KM12
IGROV-1 = tested on: IGROV-1
SNB-75 = tested on: SNB-75
OVCAR-8 = tested on: OVCAR-8
CCRF-CEM = tested on: CCRF-CEM
HCT-15 = tested on: HCT-15
UACC-62 = tested on: UACC-62
NCI-H460 = tested on: NCI-H460
COLO 205 = tested on: COLO 205

Structure (SMILES)	GI50 (786-0)	GI50 (HOP-92)	GI50 (MOLT-4)	GI50 (SW-620)	GI50 (HOP-62)	GI50 (HT-29)	GI50 (SF-295)	GI50 (KM12)	GI50 (IGROV-1)	GI50 (SNB-75)	GI50 (OVCAR-8)	GI50 (CCRF-CEM)	GI50 (HCT-15)	GI50 (UACC-62)	GI50 (NCI-H460)	GI50 (COLO 205)
COc1ccc(CN(CCN(C)C)c2ccccn2)cc1.Cn1c(=O)c2[nH]c(Br)nc2n(C)c1=O	> 100 µM (inactive)	22.3 µM (inactive)	> 100 µM (inactive)	> 100 µM (inactive)	> 100 µM (inactive)	> 100 µM (inactive)	> 100 µM (inactive)	> 100 µM (inactive)	> 100 µM (inactive)	23.3 µM (inactive)	> 100 µM (inactive)	> 100 µM (inactive)	71.6 µM	–	–	–
Cc1cc(C)c(C(=O)OC(c2ccccc2)C(c2ccccc2)N2CCOCC2)c(C)c1 (configuration not stated)	> 100 µM (inactive)	–	93.3 µM (inactive)	> 100 µM (inactive)	> 100 µM (inactive)	> 100 µM (inactive)	> 100 µM (inactive)	> 100 µM (inactive)	> 100 µM (inactive)	> 100 µM (inactive)	–	> 100 µM (inactive)	> 100 µM	> 100 µM (inactive)	> 100 µM (inactive)	> 100 µM (inactive)
O=C1OC(c2ccccc2)=N/C1=C/NC(Cc1c[nH]cn1)C(=O)O (configuration not stated)	> 100 µM (inactive)	> 100 µM (inactive)	> 100 µM (inactive)	> 100 µM (inactive)	> 100 µM (inactive)	> 100 µM (inactive)	> 100 µM (inactive)	–	> 100 µM (inactive)	> 100 µM (inactive)	> 100 µM (inactive)	> 100 µM (inactive)	> 100 µM	> 100 µM (inactive)	> 100 µM (inactive)	> 100 µM (inactive)
Cc1cc(=O)cc2sc3c(C)cccc3nc1-2	17.6 µM (inactive)	22.4 µM (inactive)	14.4 µM (inactive)	4.56 µM (inactive)	95.3 µM (inactive)	35.1 µM (inactive)	35 µM (inactive)	22.5 µM (inactive)	24.9 µM (inactive)	69.5 µM (inactive)	27.7 µM (inactive)	15.4 µM (inactive)	48.1 µM	–	25.4 µM (inactive)	18.4 µM (inactive)
Cc1ccc(S(=O)(=O)N2CCN(C=S)CC2)cc1	> 100 µM (inactive)	–	> 100 µM (inactive)	> 100 µM (inactive)	> 100 µM (inactive)	> 100 µM (inactive)	–	> 100 µM (inactive)	> 100 µM (inactive)	> 100 µM (inactive)	> 100 µM (inactive)	> 100 µM (inactive)	> 100 µM	> 100 µM (inactive)	> 100 µM (inactive)	> 100 µM (inactive)
Cc1cc(=O)n(-c2cc3cccccc-3n2)[nH]1	4.58 µM (inactive)	–	4.3 µM (inactive)	3.73 µM (inactive)	4.34 µM (inactive)	13.5 µM (inactive)	16.7 µM (inactive)	5.38 µM (inactive)	2.78 µM (inactive)	3.76 µM (inactive)	5.53 µM (inactive)	4.13 µM (inactive)	5.07 µM	2.84 µM (inactive)	3.4 µM (inactive)	14.4 µM (inactive)
O=C(CC1Sc2ccccc2NC1=O)Nc1cccc(Cl)c1 (configuration not stated)	39.4 µM (inactive)	25.5 µM (inactive)	15.9 µM (inactive)	34.4 µM (inactive)	–	57.3 µM (inactive)	59.3 µM (inactive)	–	40.9 µM (inactive)	32.4 µM (inactive)	26.2 µM (inactive)	40.4 µM (inactive)	40.6 µM	28.3 µM (inactive)	38.5 µM (inactive)	–
CCOC(=O)NC(=O)c1cn(CCOC(=O)NCCCCCCNC(=O)OCCn2cc(C(=O)NC(=O)OCC)c(=O)[nH]c2=O)c(=O)[nH]c1=O	> 100 µM (inactive)	–	> 100 µM (inactive)	> 100 µM (inactive)	> 100 µM (inactive)	> 100 µM (inactive)	> 100 µM (inactive)	> 100 µM (inactive)	> 100 µM (inactive)	> 100 µM (inactive)	> 100 µM (inactive)	> 100 µM (inactive)	> 100 µM	> 100 µM (inactive)	> 100 µM (inactive)	> 100 µM (inactive)
CCCCCCC(=O)C/C(=N/NC(N)=S)C(=O)NC1C2CC3CC(C2)CC1C3 (configuration not stated)	> 100 µM (inactive)	86.1 µM (inactive)	> 100 µM (inactive)	> 100 µM (inactive)	> 100 µM (inactive)	> 100 µM (inactive)	> 100 µM (inactive)	> 100 µM (inactive)	> 100 µM (inactive)	> 100 µM (inactive)	> 100 µM (inactive)	> 100 µM (inactive)	–	> 100 µM (inactive)	> 100 µM (inactive)	> 100 µM (inactive)
Cc1cc2c(C)nn(Cc3ccc(Cl)cc3Cl)c2c(C#N)c1C	> 100 µM (inactive)	35.9 µM (inactive)	> 100 µM (inactive)	> 100 µM (inactive)	> 100 µM (inactive)	78.5 µM (inactive)	50.4 µM (inactive)	–	> 100 µM (inactive)	89.9 µM (inactive)	> 100 µM (inactive)	> 100 µM (inactive)	> 100 µM	> 100 µM (inactive)	79.4 µM (inactive)	–
CC1(C)COC(c2c(-c3ccccc3)noc2C[S+]([O-])c2ccccc2)=N1 (configuration not stated)	76.6 µM (inactive)	–	22.5 µM (inactive)	> 100 µM (inactive)	31.4 µM (inactive)	38.5 µM (inactive)	34.6 µM (inactive)	36.1 µM (inactive)	88.5 µM (inactive)	29.6 µM (inactive)	37.3 µM (inactive)	29.2 µM (inactive)	27.4 µM	20.7 µM (inactive)	28.3 µM (inactive)	40.4 µM (inactive)
CN1C(=O)C2C=CC1C1CCC2N(C)C1=O (configuration not stated)	> 100 µM (inactive)	> 100 µM (inactive)	> 100 µM (inactive)	> 100 µM (inactive)	–	> 100 µM (inactive)	> 100 µM (inactive)	> 100 µM (inactive)	> 100 µM (inactive)	> 100 µM (inactive)	> 100 µM (inactive)	> 100 µM (inactive)	> 100 µM	> 100 µM (inactive)	–	> 100 µM (inactive)
CN1CCc2c1nc(-c1ccc(Cl)cc1)c1c2N(C)CC1	> 100 µM (inactive)	–	6.28 µM (inactive)	24.4 µM (inactive)	11.2 µM (inactive)	4.56 µM (inactive)	14.1 µM (inactive)	3.7 µM (inactive)	3.06 µM (inactive)	29.6 µM (inactive)	25.5 µM (inactive)	12 µM (inactive)	7.06 µM	5.94 µM (inactive)	15.7 µM (inactive)	2.07 µM (inactive)
COc1cccc2c1C(=O)c1c(O)c3c(c(O)c1C2=O)C[C@@](O)(C(=O)CO)CC3OC1CC(NCCOCC(OC(C)=O)OC(C)=O)C(O)C(C)O1 (some centres not stated)	< 0.01 µM (active)	< 0.01 µM (active)	< 0.01 µM (active)	< 0.01 µM (active)	0.00382 µM (active)	< 0.01 µM (active)	0.00973 µM (active)	< 0.01 µM (active)	< 0.01 µM (active)	< 0.01 µM (active)	< 0.01 µM (active)	0.00766 µM (active)	< 0.01 µM	0.00498 µM (active)	< 0.01 µM (active)	–
